# From patent US20250163104A1, “MACROCYCLIC IMMUNOMODULATORS” (priority 2021, published 2025)
# Where a SMILES comes first, the peptide text is derived from it. Bridges are numbered along the chain shown (N, C = ends). [ ]: non-standard residue; d: D form. The star is where a group is joined. ξ: configuration not given here. Ala(morpholin-4-yl) = N[C@@H](CN1CCOCC1)C(=O)O; Phe(4-COOH) = N[C@@H](Cc1ccc(C(=O)O)cc1)C(=O)O; Asp(3,3-Me2) = CC(C)(C(=O)O)[C@H](N)C(=O)O; Bip = N[C@@H](Cc1ccc(-c2ccccc2)cc1)C(=O)O; Phe(3-Me) = Cc1cccc(C[C@H](N)C(=O)O)c1; Val(3-OH) = CC(C)(O)[C@H](N)C(=O)O; Benzoyl(4-F) = O=C(c1ccc(F)cc1)*; aIle = CC[C@@H](C)[C@H](N)C(=O)O; 4Pal = N[C@@H](Cc1ccncc1)C(=O)O; Cha = N[C@@H](CC1CCCCC1)C(=O)O; Cit = NC(=O)NCCC[C@H](N)C(=O)O; Ile(3ξ) = CCC(C)[C@H](N)C(=O)O; dCha = N[C@H](CC1CCCCC1)C(=O)O; ξIle = CC[C@H](C)C(N)C(=O)O; Carboxymethyl = O=C(O)C*; Orn = NCCC[C@H](N)C(=O)O; Pra = C#CC[C@H](N)C(=O)O; Dab = NCC[C@H](N)C(=O)O; Dap = NC[C@H](N)C(=O)O
# Target: T1, human PD-1 / PD-L1-Ig binding on Jurkat cell line over-expressing human PD-1 (Jurkat-PD-1) (Homo sapiens, UniProt Q15116)
# T1 construct: expressed in transfected cells; host or cells: Jurkat
# T1 sequence (Q15116 25-288): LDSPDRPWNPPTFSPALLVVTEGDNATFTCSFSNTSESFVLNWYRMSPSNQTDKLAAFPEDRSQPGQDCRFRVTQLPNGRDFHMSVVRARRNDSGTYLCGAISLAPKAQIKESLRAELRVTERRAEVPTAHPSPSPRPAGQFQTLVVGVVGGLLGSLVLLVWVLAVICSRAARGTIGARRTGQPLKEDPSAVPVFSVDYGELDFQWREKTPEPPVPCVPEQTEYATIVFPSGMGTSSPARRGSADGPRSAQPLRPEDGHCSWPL
# Test: Jurkat-PD-1 Cell Binding High-Content Screening Assay (CBA)
# Format: cell-based
# Conditions: Jurkat-PD-1 cells, PE-labeled PD-L1-Ig 20 nM final; read-out: Jurkat HPD1_PDL1 IC50
# Procedure: Example 3. Jurkat-PD-1 Cell Binding High-Content Screening Assay (CBA)
# Jurkat-PD-1 Cell Binding High-Content Screening Assay (CBA). Phycoerythrin (PE) was covalently linked to the Ig epitope tag of human PD-L1-Ig and fluorescently-labeled PD-L1-Ig was used for binding studies with a Jurkat cell line over-expressing human PD-1 (Jurkat-PD-1). Briefly, 8×10^3 Jurkat-hPD-1 cells were seeded into 384 well plates in 20 μl of DMEM supplemented with 10% fetal calf serum. 100 nL of compound was added to cells followed by incubation at 37° C. for 2 h. Then, 5 μl of PE-labeled PD-L1-Ig (20 nM final), diluted in DMEM supplemented with 10% fetal calf serum. After 1 hour incubation, cells were fixed with 4% paraformaldehyde in dPBS containing 10 μg/ml Hoechst 33342 and then washed 3x in 100 μl dPBS. Data was collected and processed using a Cell Insight NXT High Content Imager and associated software.
row,IC50,Compound
1,121 nM,Cc1cccc(C[C@@H]2NC(=O)[C@H](CC(=O)O)NC(=O)[C@H](Cc3ccc(OCC(=O)O)cc3)NC(=O)[C@H](CCCNC(=N)N)NC(=O)CSC[C@@H](C(N)=O)NC(=O)[C@H]([C@@H](C)O)NC(=O)[C@H](C(C)C)NC(=O)[C@H](CC3CCCCC3)NC(=O)[C@H](CCN)NC(=O)[C@@H](CC(C)C)NC(=O)[C@H](CCCNC(=O)c3ccc(F)cc3)NC(=O)[C@H](Cc3ccc(OCC(=O)O)cc3)NC(=O)[C@H](Cc3ccc(-c4ccccc4)cc3)NC(=O)[C@H](Cc3ccc(O)cc3)NC2=O)c1 [Compound 2050] ({CH2CO}-RY(Carboxymethyl)D[Phe(3-Me)]Y[Bip]Y(Carboxymethyl)[Orn](Benzoyl(4-F))[dL][Dab][Cha]VTC-NH2; thioether N-14)
2,7.7 nM,CC(C)C[C@H]1NC(=O)[C@H](CCCN)NC(=O)[C@H](CCCNC(N)=O)NC(=O)[C@H](Cc2ccc(-c3ccccc3)cc2)NC(=O)[C@H](C(C)C)NC(=O)[C@H](Cc2c[nH]c3ccccc23)NC(=O)[C@H](CC(=O)O)NC(=O)[C@H](Cc2ccc(O)cc2)NC(=O)[C@H](CC(N)=O)NC(=O)CSC[C@@H](C(=O)N[C@@H](C)C(N)=O)NC(=O)[C@H]([C@@H](C)O)NC(=O)[C@H](C(C)C)NC(=O)[C@H](CC2CCCCC2)NC(=O)[C@H](CCCNC(=N)N)NC1=O [Compound 1155] ({CH2CO}-NYDWV[Bip][Cit][Orn][dL]R[Cha]VTCA-NH2; thioether N-14)
3,44.8 nM,Cc1cccc(C[C@@H]2NC(=O)[C@H](CC(=O)O)NC(=O)[C@H](Cc3ccc(C(=O)O)cc3)NC(=O)[C@H](Cc3ccncc3)NC(=O)CSC[C@@H](C(N)=O)NC(=O)[C@H]([C@@H](C)O)NC(=O)[C@H](C(C)C)NC(=O)[C@H](CC(C)C)NC(=O)[C@H](CCN)NC(=O)[C@@H](CC(C)C)NC(=O)[C@H](CCCN)NC(=O)[C@H](CCCNC(N)=O)NC(=O)[C@H](Cc3ccc(-c4ccccc4)cc3)NC(=O)[C@H](C(C)C)NC2=O)c1 [Compound 2267] ({CH2CO}-[4Pal][Phe(4-COOH)]D[Phe(3-Me)]V[Bip][Cit][Orn][dL][Dab]LVTC-NH2; thioether N-14)
4,8.6 nM,CC[C@H](C)[C@@H]1NC(=O)[C@H](Cc2ccc(-c3ccccc3)cc2)NC(=O)[C@H](C(C)C)NC(=O)[C@H](Cc2c[nH]c3ccccc23)NC(=O)[C@H](CC(=O)O)NC(=O)[C@H](Cc2ccc(O)cc2)NC(=O)[C@H](CN)NC(=O)CSC[C@@H](C(=O)N[C@@H](C)C(N)=O)NC(=O)[C@H]([C@@H](C)O)NC(=O)[C@H](C(C)C)NC(=O)[C@H](CC(C)C)NC(=O)[C@H](CCN)NC(=O)[C@@H](CC(C)C)NC(=O)[C@H](CCCN)NC1=O [Compound 1056] ({CH2CO}-[Dap]YDWV[Bip]I[Orn][dL][Dab]LVTCA-NH2; thioether N-14)
5,17 nM,"Cc1cccc(C[C@@H]2NC(=O)[C@H](CC(=O)O)NC(=O)[C@H](Cc3ccc(OCC(=O)O)cc3)NC(=O)[C@H](CCN)NC(=O)CSC[C@@H](C(=O)N[C@@H](CCN)C(N)=O)NC(=O)[C@H](CO)NC(=O)[C@H](C(C)(C)C(=O)O)NC(=O)[C@H](CC3CCCCC3)NC(=O)[C@H](CCN)NC(=O)[C@@H](CC(C)C)NC(=O)[C@H](CCCN)NC(=O)[C@H](Cc3ccc(OCC(=O)O)cc3)NC(=O)[C@H](Cc3ccc(-c4ccccc4)cc3)NC(=O)[C@H](Cc3ccc(OCC(=O)O)cc3)NC2=O)c1 [Compound 2070] ({CH2CO}-[Dab]Y(Carboxymethyl)D[Phe(3-Me)]Y(Carboxymethyl)[Bip]Y(Carboxymethyl)[Orn][dL][Dab][Cha][Asp(3,3-Me2)]SC[Dab]-NH2; thioether N-14)"
6,24.5 nM,CCCC[C@H]1NC(=O)[C@H](CCCN)NC(=O)[C@H](CCCNC(N)=O)NC(=O)[C@H](Cc2ccc(-c3ccccc3)cc2)NC(=O)[C@H](C(C)C)NC(=O)[C@H](Cc2c[nH]c3ccccc23)NC(=O)[C@H](CC(=O)O)NC(=O)[C@H](Cc2ccc(OCC(=O)O)cc2)NC(=O)[C@H](Cc2ccncc2)NC(=O)CSC[C@@H](C(=O)N[C@@H](C)C(N)=O)NC(=O)[C@H]([C@@H](C)O)NC(=O)[C@H](C(C)C)NC(=O)[C@H](CC2CCCCC2)NC(=O)[C@H](CCN)NC1=O [Compound 1701]
7,15.6 nM,CC[C@H](C)[C@@H]1NC(=O)[C@H](Cc2ccc(-c3ccccc3)cc2)NC(=O)[C@H](C(C)C)NC(=O)[C@H](Cc2cccc(C)c2)NC(=O)[C@H](CC(=O)O)NC(=O)[C@H](Cc2ccc(OCC(=O)O)cc2)NC(=O)[C@H](Cc2ccncc2)NC(=O)CSC[C@@H](C(=O)N[C@@H](C)C(N)=O)NC(=O)[C@H]([C@@H](C)O)NC(=O)[C@H](C(C)C)NC(=O)[C@H](CC2CCCCC2)NC(=O)[C@H](CCN)NC(=O)[C@@H](CC(C)C)NC(=O)[C@H](CCCN)NC1=O [Compound 1198]
8,6 nM,Cc1cccc(C[C@@H]2NC(=O)[C@H](CC(=O)O)NC(=O)[C@H](Cc3ccc(OCC(=O)O)cc3)NC(=O)[C@H](Cc3ccncc3)NC(=O)CSC[C@@H](C(=O)N[C@@H](CCN)C(N)=O)NC(=O)[C@H](CCC(=O)O)NC(=O)[C@H](C(C)(C)O)NC(=O)[C@H](CC3CCCCC3)NC(=O)[C@H](CCN)NC(=O)[C@@H](CC(C)C)NC(=O)[C@H](CCCN)NC(=O)[C@H](Cc3ccc(C(=O)O)cc3)NC(=O)[C@H](Cc3ccc(-c4ccccc4)cc3)NC(=O)[C@H](Cc3ccc(C(=O)O)cc3)NC2=O)c1 [Compound 2677] ({CH2CO}-[4Pal]Y(Carboxymethyl)D[Phe(3-Me)][Phe(4-COOH)][Bip][Phe(4-COOH)][Orn][dL][Dab][Cha][Val(3-OH)]EC[Dab]-NH2; thioether N-14)
9,40 nM,CC(C)C[C@H]1NC(=O)[C@H](CCCN)NC(=O)[C@H](CCCNC(N)=O)NC(=O)[C@H](Cc2ccc(-c3ccccc3)cc2)NC(=O)[C@H](C(C)C)NC(=O)[C@H](Cc2c[nH]c3ccccc23)NC(=O)[C@H](CC(=O)O)NC(=O)[C@H](Cc2ccc(OCC(=O)O)cc2)NC(=O)[C@H](CN)NC(=O)CSC[C@@H](C(=O)N[C@@H](C)C(N)=O)NC(=O)[C@H]([C@@H](C)O)NC(=O)[C@H](C(C)C)NC(=O)[C@H](CCC2CCCCC2)NC(=O)[C@H](CCN)NC1=O [Compound 1348]
10,4.3 nM,C#CC[C@H](NC(=O)[C@H](CCN)NC(=O)[C@@H]1CSCC(=O)N[C@@H](CN2CCOCC2)C(=O)N[C@@H](Cc2ccc(OCC(=O)O)cc2)C(=O)N[C@@H](CC(=O)O)C(=O)N[C@@H](Cc2cccc(C)c2)C(=O)N[C@@H](Cc2ccc(OCC(=O)O)cc2)C(=O)N[C@@H](Cc2ccc(-c3ccccc3)cc2)C(=O)N[C@@H](Cc2ccc(OCC(=O)O)cc2)C(=O)N[C@@H](CCCN)C(=O)N[C@H](CC(C)C)C(=O)N[C@@H](CCN)C(=O)N[C@@H](CC2CCCCC2)C(=O)N[C@@H](C(C)C)C(=O)N[C@@H](CO)C(=O)N1)C(N)=O [Compound 1863] ({CH2CO}-[Ala(morpholin-4-yl)]Y(Carboxymethyl)D[Phe(3-Me)]Y(Carboxymethyl)[Bip]Y(Carboxymethyl)[Orn][dL][Dab][Cha]VSC[Dab][Pra]-NH2; thioether N-14)
11,101 nM,CCC(C)[C@@H]1NC(=O)[C@H](Cc2ccc(-c3ccccc3)cc2)NC(=O)[C@H](Cc2ccc(C(=O)O)cc2)NC(=O)[C@H](Cc2cccc(C)c2)NC(=O)[C@H](CC(=O)O)NC(=O)[C@H](Cc2ccc(C(=O)O)cc2)NC(=O)[C@H](Cc2ccncc2)NC(=O)CSC[C@@H](C(=O)N[C@H](C)C(N)=O)NC(=O)[C@H](CCC(=O)O)NC(=O)[C@H](C(C)(C)O)NC(=O)[C@H](CC2CCCCC2)NC(=O)[C@H](CCN)NC(=O)[C@@H](CC(C)C)NC(=O)[C@H](Cc2cnc[nH]2)NC1=O (stereo partly drawn) [Compound 2666] ({CH2CO}-[4Pal][Phe(4-COOH)]D[Phe(3-Me)][Phe(4-COOH)][Bip][Ile(3ξ)]H[dL][Dab][Cha][Val(3-OH)]EC[dA]-NH2; thioether N-14)
12,51.9 nM,CC[C@@H](C)[C@@H]1NC(=O)[C@H](Cc2ccc(-c3ccccc3)cc2)NC(=O)[C@H](C(C)C)NC(=O)[C@H](Cc2c[nH]c3ccccc23)NC(=O)[C@H](CC(=O)O)NC(=O)[C@H](Cc2ccc(C(=O)O)cc2)NC(=O)[C@H](Cc2ccc(OCC(=O)O)cc2)NC(=O)CSC[C@@H](C(=O)N[C@@H](C)C(N)=O)NC(=O)[C@H]([C@@H](C)O)NC(=O)[C@H](C(C)C)NC(=O)[C@H](CC2CCCCC2)NC(=O)[C@H](CCN)NC(=O)[C@@H](CC2CCCCC2)NC(=O)[C@H](CCCN)NC1=O [Compound 1626] ({CH2CO}-Y(Carboxymethyl)[Phe(4-COOH)]DWV[Bip][aIle][Orn][dCha][Dab][Cha]VTCA-NH2; thioether N-14)
13,11.6 nM,Cc1cccc(C[C@@H]2NC(=O)[C@H](CC(=O)O)NC(=O)[C@H](Cc3ccc(O)cc3)NC(=O)[C@H](CC(N)=O)NC(=O)CSC[C@@H](C(=O)N[C@@H](C)C(N)=O)NC(=O)[C@H]([C@@H](C)O)NC(=O)[C@H](C(C)C)NC(=O)[C@H](CC3CCCCC3)NC(=O)[C@H](CCN)NC(=O)[C@@H](Cc3ccccc3)NC(=O)[C@H](CCCN)NC(=O)[C@H](CCC(=O)O)NC(=O)[C@H](Cc3ccc(-c4ccccc4)cc3)NC(=O)[C@H](C(C)C)NC2=O)c1 [Compound 1431] ({CH2CO}-NYD[Phe(3-Me)]V[Bip]E[Orn][dF][Dab][Cha]VTCA-NH2; thioether N-14)
14,28 nM,CC[C@H](C)C1NC(=O)[C@H](Cc2ccc(-c3ccccc3)cc2)NC(=O)[C@H](C(C)C)NC(=O)[C@H](Cc2c[nH]c3ccccc23)NC(=O)[C@H](CC(N)=O)NC(=O)[C@H](Cc2ccc(O)cc2)NC(=O)[C@H](CN)NC(=O)CSC[C@@H](C(=O)N[C@@H](C)C(N)=O)NC(=O)[C@H]([C@@H](C)O)NC(=O)[C@H](C(C)C)NC(=O)[C@H](CC(C)C)NC(=O)[C@H](CCN)NC(=O)[C@@H](CC(C)C)NC(=O)[C@H](CCN)NC1=O (stereo partly drawn) [Compound 1090] ({CH2CO}-[Dap]YNWV[Bip][ξIle][Dab][dL][Dab]LVTCA-NH2; thioether N-14)
